{"source": "ChEMBL document CHEMBL3045732", "about": "“Structural requirements for repellency: norsesquiterpenes and sesquiterpenoid derivatives of nootkatone against the Formosan subterranean termite (Isoptera: Rhinotermitidae)” (2010)", "data": [{"tested_on": "Coptotermes formosanus", "test": "Insect repellant activity against Coptotermes formosanus assessed as repellency threshold concentration measured up to 24 hr by multiple-step triage method", "format": "functional", "units": {"MEC": "µg/g"}, "values": [{"compound": "C=C(C)[C@@H]1CC[C@@]2(C)CCC(=O)C=C2C1", "MEC": 6.25}, {"compound": "C=C(C)[C@@H]1CC[C@]2(C)C(=CC(=O)C[C@@H]2C)C1", "MEC": 12.5}, {"compound": "CC(C)[C@@H]1CC[C@]2(C)C(=CC(=O)C[C@@H]2C)C1", "MEC": 6.25}, {"compound": "C=C(C)[C@@H]1CCC2CC(=O)C[C@@H](C)[C@]2(C)C1", "note": "(some centres not stated) [1,10-DIHYDRONOOTKATONE]", "MEC": 1.56}, {"compound": "C=C(C)[C@@H]1CCC2C[C@@H](O)C[C@@H](C)[C@]2(C)C1", "note": "(some centres not stated)", "MEC": 50}, {"compound": "C=C(C)[C@@H]1CCC2CC3(C[C@@H](C)[C@]2(C)C1)OCCO3", "note": "(some centres not stated) [1,10-DIHYDRONOOTKATONE KETAL]", "MEC": 1.56}, {"compound": "C=C(C)[C@@H]1CC[C@@]2(C)C(C)=CC(=O)C=C2C1", "MEC": 50}, {"compound": "CC(C)[C@@H]1CCC2=CC(=O)C[C@H](C)[C@@]2(C)C1", "note": "[4BETA,5BETA-1,10-DIHYDRONOOTKATONE]", "MEC": 3.25}, {"compound": "CC(C)[C@@H]1CCC2=CC(=O)C[C@@H](C)[C@]2(C)C1", "note": "[11,12-DIHYDRONOOTKATONE]", "MEC": 6.25}, {"compound": "CC1=CC(=O)C=C2C[C@H](C(C)C)CC[C@@]12C", "MEC": 25}, {"compound": "CC(C)[C@@H]1CCC2CC(=O)C[C@@H](C)[C@]2(C)C1", "note": "(some centres not stated) [TETRAHYDRONOOTKATONE]", "MEC": 1.56}, {"compound": "C=C(C)[C@@H]1CCC2=C[C@@H](O)C[C@@H](C)[C@]2(C)C1", "note": "[BETA-NOOTKATOL]", "MEC": 100}, {"compound": "CC(C)[C@@H]1CC[C@@]2(C)C=CC(=O)C=C2C1", "MEC": 25}, {"compound": "C=C(C)[C@@H]1CC[C@@]2(C)C=CC(=O)C=C2C1", "MEC": 25}, {"compound": "C=C(C)[C@@H]1CC[C@]2(C)CCC(=O)C=C2C1", "MEC": 12.5}, {"compound": "C=C(C)[C@@H]1CCC2=CC(=O)C[C@@H](C)[C@]2(C)C1", "note": "[NOOTKATONE]", "MEC": 12.5}, {"compound": "CC(C)[C@@H]1CCC2CC3(C[C@@H](C)[C@]2(C)C1)OCCO3", "note": "(some centres not stated) [TETRAHYDRONOOTKATONE KETAL]", "MEC": 1.56}]}]}
